Assay results as given in patent publication US7109223B2, “Oxazolidin-2-one and thiazolidin-2-one derivatives for use as EP4 receptor agonists in the treatment of glaucoma” (Merck & Co. Inc., priority 2002, dated 2006).
Entries after “also recorded” stand apart in the source; their conditions may differ.

Tests used:
RCT-3 cells [1] = assay: EP4 mRNA levels in RCT-3 cells (Northern blot); format: cell-based, rat
Description: (§1) RCT-1 and RCT-3 are clonal cell lines immortalized by SV-40 large T antigen from cells released from fetal rat calvair by a cmbination collagenase/hyaluronidase digestion. RCT-1 cells, derived from cells released during the first 10 minutes of digestion (fraction I), are cultured in RPMI 1640 medium (BRL) with 10% fetal bovine serum and 0.4 mg/ml G418 (BRL). These cells differentiate and express osteoblastic features upon retinoic acid treatment. RCT-3 cells, immortalized from osteoblast-enriched fraction III cells, are cultured in F-12 medium (BRL) with 5% Fetal bovine serum and 0.4 mg/ml G418. TRAB-11 cells are also immortalized by SV40 large T antigen from adult rat tibia and are cultured in RPMI 1640 medium with 10% FBS and 0.4 mg/ml G418. ROS 17/2.8 rat osteosarcoma cells are cultured in F-12 containing 5% FBS. Osteoblast-enriched (fraction III) primary fetal rat calvaria cells are obtained by collagenase/hyaluronidase digestion of calvariae of 19 day-old rat fetuses. See Rodan et al., Growth stimulation of rat calvaria osteoblastic cells by acidic FGF, Endocrinology, 121, 1919–1923 (1987), which is incorporated by reference herein in its entirety. Cells are released during 30–50 minutes digestion (fraction III) and are cultured in F-12 medium containing 5% FBS. […]

RP-1 periosteal cells = assay: EP4 and EP2 mRNA levels in RP-1 periosteal cells (Northern blot); format: cell-based, rat; conditions: RP-1 cells
Description: RP-1 periosteal cells are spontaneously immortalized from primary cultures of periosteal cells from tibae of 4-week old Sprague-Dawley rats and are cultured in DMEM (BRL, Gaithersburg, Md.) with 10% fetal bovine serum (JRH Biosciences, Lenexa, Kans.).
(§2) Total RNA is extracted from the tibial metaphysis or diaphysis and calvaria using a guanidinium isothiocyanate-phenol-chloroform method after pulverizing frozen bone samples by a tissue homogenizer. See P. Chomczynski et al., Single-step method of RNA isolation by acid guanidium thiocyanate-phenol-chloroform extraction, Analyt Biochem, 162, 156–159 (1987), which is incorporated by reference herein in its entirety. RNA samples ([…]) are separated on 0.9% agarose/formaldehyde gels and transferred onto nylon membranes (Boehringer Mannheim, Germany). Membranes are prehybridized in Hybrisol I (Oncor, Gaithersburg, Md.) and 0.5 mg/ml sonicated salmon sperm DNA (Boehringer) at 42° C. for 3 hours and are hybridized at 42° C. with rat EP2 and mouse EP4 cDNA probes labeled with [^32P]-dCTP (Amersham, Buckinghamshire, UK) by random priming using the rediprime kit (Amersham). After hybridization, membranes are washed 4 times in 2× SSC+0.1% SDS at room temperature for a total of 1 hour and once with 0.2× SSC+0.1% SDS at 55° C. for 1 hour and then exposed to Kodak XAR 2 film at −70° C. using intensifying screens. After developing the films, bound probes are removed twice with 0.1% SDS at 80° C. and membranes are hybridized with a human GAPDH (Glyceraldehyde 3-Phosphate Dehydrogenase) cDNA probe (purchased from Clontech, Palo Alto, Calif.) for loading control.
PGE2 enhances its own production via upregulation of cyclooxygenase 2 expression in osteoblasts and in bone tissue thus autoamplifying its own effects. PGE2 also increases the levels of EP4 mRNA. RP-1 cells are immortalized from a primary culture of adult rat tibia periosteum is examined. These cells express osteoblast phenotypic markers upon confluence and form mineralized bone matrix when implanted in nude mice. […]

RCT-3 cells [2] = assay: Effect on intracellular cAMP in RCT-3 cells; format: cell-based, rat
Description: as §1

TRAB-11 cells = assay: Effect on intracellular cAMP in TRAB-11 cells; format: cell-based, rat
Description: as §1

bone marrow cells = assay: Localization of EP4 mRNA expression in bone tissue (in situ hybridization); format: in vivo, rat; conditions: rats, single anabolic dose
Description: (§3) For mRNA localization experiments, 5-week old Sprague-Dawley rats (Charles River) are euthanized by CO2, their tibiae and calvariae are excised, cleaned of soft tissues and frozen immediately in liquid nitrogen. For EP4 regulation experiments, 6-week old rats are given a single injection of either vehicle (7% ethanol in sterile water) or an anabolic dose of PGE2 (Cayman Chemical, Ann Arbor, Mich.), 3–6 mg/kg in the same vehicle) intraperitoneally. Animals are euthanized at several time points post-injection and their tibiae and calvariae, as well as samples from lung and kidney tissues are frozen in liquid nitrogen.
Frozen tibiae are sectioned coronally at […] thickness and sections are mounted on charged slides (Probe On Plus, Fisher Scientific, Springfield, N.J.) and are kept at −70° C. until hybridization. cRNA probes are labeled with ^35S-UTPgS (ICN, Costa Mesa, Calif.) using a Riboprobe II kit (Promega Madison, Wis.). Hybridization is performed overnight at 50° C. […]
In situ hybridization is used in order to localize cells expressing EP4 in bone. In control experiment (vehicle-injected) rats, low expression of EP4 is detected in bone marrow cells. […]

[3] = tested on: ROS 17/2.8 rat osteosarcoma cells; assay: Effect on intracellular cAMP in ROS 17/2.8 cells; format: cell-based
Description: as §1

bone tissue = assay: EP4 and EP2 mRNA levels in vivo in bone tissue (Northern blot); design: species or system rat
Description: as §3
as §2, with “control. […]” for “control.”

Q: Which results are given for CCCCC[C@H](O)/C=C/[C@H]1[C@H](O)CC(=O)[C@@H]1C/C=C\CCCC(=O)O [PGE2]?
A: EP4 mRNA levels (RCT-3 cells [1]): no effect; EP2 mRNA (RP-1 periosteal cells): not expressed; also recorded: does not induce; EP4 mRNA levels (RP-1 periosteal cells; 10^−6M): rapidly increases; time of peak EP4 mRNA levels after treatment (RP-1 periosteal cells; 10^−6M): 2 h; effect on intracellular cAMP (RCT-3 cells [2]): markedly induced; effect on intracellular cAMP (TRAB-11 cells): markedly induced; expression of EP4 in bone marrow cells (bone marrow cells): increased; effect on intracellular cAMP [3]: no effect; time of peak EP4 mRNA levels in the tibial diaphysis after injection (bone tissue; five-week-old male rats, 3–6 mg/Kg): 2 h; EP4 mRNA levels in the tibial diaphysis (bone tissue; five-week-old male rats, 3–6 mg/Kg, systemic administration): rapidly increased; EP2 mRNA in bone tissue (bone tissue; rats): does not induce
